# Results from US11364256B2, “Viral inhibition” (Monash University, priority 2020, dated 2022).
# pIC50: −log10 of the molar value. Like-named read-outs stand apart in the source and are kept apart here.
# Key:
# [1] = tested on: SARS-CoV-2 isolate Australia/VIC01/2020; assay: SARS-CoV-2 infected Vero/hSLAM cells treated after infection, viral RNA by real-time RT-PCR; format: cell-based
# SARS-CoV-2 = assay: Prophylactic pre-treatment of Vero/hSLAM cells before SARS-CoV-2 infection, viral load by real-time PCR of supernatant; format: cell-based
# Method: Vero/hSLAM cells were pre-treated with DMSO, ivermectin or Moxidectin at the indicated concentrations for 2 h prior to infection with SARS-CoV-2 (MOI=0.01) for 2 h in the presence of DMSO or drugs. Samples were washed post-adsorption and incubated in the fresh media containing DMSO or drugs for 48 h before quantitation of viral load using real-time PCR of supernatant. The results shown in FIG. 5 represent mean±SD (n=6) relative to DMSO alone. […] Average IC50 values for CALU-3 cells compared to Vero/hSLAM cells assayed under the same conditions are shown (Table, right, n=independent experiments).
# [2] = tested on: seasonal coronavirus 229E; assay: Huh-7 cells infected with 229E, treated after infection, viral load by real-time PCR of supernatant; format: cell-based; settings: Huh-7, 229E MOI 0.01, 48 h post infection, read-out: IC50 (FIG. 6, panels A/B)
# Method: Huh-7 cells were infected with 229E (MOI=0.01) for 2 h prior to addition of vehicle (DMSO), Ivermectin (FIG. 6, panel A) or Moxidectin (FIG. 6, panel B) at the indicated concentrations. Samples were taken 48 h post infection for quantitation of viral load using real-time PCR of supernatant. Results represent mean±SD (n=6) relative to DMSO alone.
# Vero/hSLAM cells = settings: for toxicity at any of the time points tested: sample wells or parallel drug alone samples, 5 μM
# [3] = tested on: SARS-CoV-2 clinical isolate Australia/VIC01/2020; assay: SARS-CoV-2 infected CALU-3 (human lung) cells, viral load by real-time PCR of supernatant; format: cell-based
# Method: CALU-3 (human lung) cells were infected with SARS-CoV-2 clinical isolate Australia/VIC01/2020 (MOI=0.01) for 2 h prior to addition of vehicle (DMSO) or Ivermectin at the indicated concentrations indicated in FIG. 3. Samples were taken 24 h post infection for quantitation of viral load using real-time PCR of supernatant. The results illustrated in FIG. 3 represent mean±SD (n=6) relative to DMSO alone.
# [4] = tested on: seasonal coronavirus 229E; assay: Prophylactic pre-treatment of Huh-7 cells before 229E infection, viral load by real-time PCR; format: cell-based; settings: Huh-7 pre-treated 2 h, 229E MOI 0.01, 48 h; read-out: IC50 (FIG. 6, panel C), prophylactic
# Method: For assessment of prophylactic potential Huh-7 cells were pre-treated with DMSO or ivermectin at the indicated concentrations for 2 h prior to infection with 229E (MOI=0.01) for 2 h in the presence of DMSO or ivermectin (FIG. 6, panel C). Samples (n=5) were washed post-adsorption and incubated in the fresh media containing DMSO or ivermectin for 48 h before quantitation of viral load as above.
# [5] = 48 h, compared to vehicle DMSO, Vero/hSLAM, E gene, concentration not restated (5 μM in FIG. 2, panel A)
# [6] = 5 μM, 24 h, MOI 0.1, Vero/hSLAM, compared to vehicle DMSO
compound,measurement,setting,value
CO/N=C1\C[C@]2(C[C@@H]3C[C@@H](C/C=C(\C)C[C@@H](C)/C=C/C=C4\CO[C@@H]5[C@H](O)C(C)=C[C@@H](C(=O)O3)[C@]45O)O2)O[C@H](/C(C)=C/C(C)C)[C@H]1C [moxidectin],reduction in viral RNA present in the supernatant (released virions),[1]; [5],99.9%
same,pIC50,"[1]; Severe acute respiratory syndrome coronavirus 2, 24 h, supernatant, E gene, MOI 0.01, Vero/hSLAM, read-out: Calculated IC50 (FIG. 2, panel B)",5.89
same,pIC50,"[1]; Severe acute respiratory syndrome coronavirus 2, 48 h, supernatant, E gene, MOI 0.01, Vero/hSLAM, read-out: Calculated IC50 (FIG. 2, panel C)",5.89
same,pIC50,"[1]; Severe acute respiratory syndrome coronavirus 2, 72 h, supernatant, E gene, MOI 0.01, Vero/hSLAM, read-out: Calculated IC50 (FIG. 2, panel D)",5.62
same,pIC50,"SARS-CoV-2; Severe acute respiratory syndrome coronavirus 2, Vero, read-out: IC50 +/− SEM (n*), treated prophylactically",5.78
same,pIC50,"SARS-CoV-2; Severe acute respiratory syndrome coronavirus 2, pre-treated 2 h, MOI 0.01, 48 h, supernatant, Vero/hSLAM, read-out: IC50 (FIG. 5), prophylactic",5.74
same,pIC50,[2]; Human coronavirus 229E,6.62
same,toxicity at any of the time points tested,Vero/hSLAM cells,No toxicity
ivermectin,reduction in cell-associated viral RNA (unreleased and unpackaged virions),[1]; [6],99.8%
same,reduction in viral RNA present in the supernatant (released virions),[1]; [6],93%
same,reduction in viral RNA in both supernatant and cell pellets,"[1]; 5 μM, 48 h, E gene, Vero/hSLAM",> 5000
same,reduction in viral RNA (equating to the >5000 reduction),"[1]; 5 μM, 48 h, supernatant and cell pellets, Vero/hSLAM",99.98%
same,further reduction in viral RNA at 72 h,"[1]; 5 μM, 72 h versus 48 h, MOI 0.1, Vero/hSLAM",no further reduction
same,pIC50,"[1]; 24 h, supernatant, E gene, MOI 0.01, Vero/hSLAM, read-out: Calculated IC50 (FIG. 2, panel B)",5.85
same,reduction in viral RNA present in the supernatant (released virions),[1]; [5],99.5%
same,pIC50,"[1]; 48 h, supernatant, E gene, MOI 0.01, Vero/hSLAM, read-out: Calculated IC50 (FIG. 2, panel C)",5.66
same,pIC50,"[1]; 72 h, supernatant, E gene, MOI 0.01, Vero/hSLAM, read-out: Calculated IC50 (FIG. 2, panel D)",5.51
same,pIC50,"[1]; E gene, 48 h, treated 2 h post infection, MOI 0.1, Vero/hSLAM, panels C/D = supernatant and cell pellets, read-out: IC50 of ivermectin treatment (FIG. 1, panel C)",5.55
same,pIC50,"[1]; E gene, 48 h, treated 2 h post infection, MOI 0.1, Vero/hSLAM, panels C/D = supernatant and cell pellets, read-out: IC50 of ivermectin treatment (FIG. 1, panel D)",5.62
same,pIC50,"[1]; RdRp gene primers, 48 h, MOI 0.1, Vero/hSLAM, panels E/F = released (supernatant) and cell-associated virus, read-out: IC50 of ivermectin treatment (FIG. 1, panel E)",5.60
same,pIC50,"[1]; RdRp gene primers, 48 h, MOI 0.1, Vero/hSLAM, panels E/F = released (supernatant) and cell-associated virus, read-out: IC50 of ivermectin treatment (FIG. 1, panel F)",5.66
same,pIC50,"[1]; average of independent experiments, Vero/hSLAM assayed under the same conditions as CALU-3, read-out: IC50 +/− SEM (n*), Vero/hSLAM",5.63
same,pIC50,"[3]; CALU-3, 24 h post infection, supernatant, MOI 0.01, read-out: IC50 (FIG. 3)",6.38
same,pIC50,"[3]; average of independent experiments, CALU-3, read-out: IC50 +/− SEM (n*), CALU-3",6.39
same,pIC50,"SARS-CoV-2; average of independent experiments, Vero/hSLAM, read-out: IC50 +/− SEM (n*), treated prophylactically",5.76
same,pIC50,"SARS-CoV-2; pre-treated 2 h, MOI 0.01, 48 h, supernatant, Vero/hSLAM, read-out: IC50 (FIG. 5), prophylactic",5.80
same,pIC50,[2],6.74
same,pIC50,[4],5.69
same,toxicity at any of the time points tested,Vero/hSLAM cells,No toxicity
same,toxicity at any of the concentrations tested,"Vero/hSLAM cells; serial dilutions, 48 h",no toxicity
